Experimental findings from ChEMBL document CHEMBL3603836, “Hybrid pyrimidine alkynyls inhibit the clinically resistance related Bcr-Abl(T315I) mutant” (Bioorg Med Chem Lett, 2015) are described below.

SMILES strings stand for the structures.

One series is described as follows: cells. The following applies: Mus musculus, BaF3, 72 h.
Series [1] addresses Bcr/Abl fusion protein (Homo sapiens, UniProt P00519). The class given is protein assay.
Description: Inhibition of wild type Bcr-Abl (unknown origin) using Tyr2 peptide substrate after 2 hrs by FRET-based Z'-lyte assay
In the next series the test system is K562. The series can be described thus: cells. The following applies: Homo sapiens, K562, 72 h.
The target of series [2] is Bcr/Abl fusion protein (Homo sapiens, UniProt P00519, T315I). It counts as protein assay.
Series [3] is described as follows: Antiproliferative activity against mouse BA/F3 cells expressing wild type Bcr-Abl after 72 hrs by CCK-8 assay. The class given is functional, cell-based. The following applies: BaF3, 72 h.
Series [4] concerns Rattus norvegicus. The series can be described thus: AUC (0 to infinity) in Sprague-Dawley rat at 10 mg/kg, iv. The class given is ADME, organism-based. The arrangement: dose 10 mg/kg, time infinity, route intravenous. The following applies: in vivo.
Series [5] is described as follows: Half life in Sprague-Dawley rat at 10 mg/kg, iv. It counts as ADME, organism-based. The following applies: in vivo.
Series [6] deals with Rattus norvegicus. The series can be described thus: AUC (0 to infinity) in Sprague-Dawley rat at 25 mg/kg, po. The arrangement: dose 25 mg/kg, time infinity, route oral. The following applies: in vivo. It counts as ADME, organism-based.
Series [7] is described as follows: Cmax in Sprague-Dawley rat at 25 mg/kg, po. The arrangement: dose 25 mg/kg, route oral. It counts as ADME, organism-based. The following applies: in vivo.
The nature of series [8]: Tmax in Sprague-Dawley rat at 25 mg/kg, po. It counts as ADME, organism-based. The following applies: in vivo.
Series [9] can be described thus: Half life in Sprague-Dawley rat at 25 mg/kg, po. It counts as ADME, organism-based. The following applies: in vivo.
The nature of series [10]: Cmax in Sprague-Dawley rat at 10 mg/kg, iv. The following applies: in vivo. The arrangement: dose 10 mg/kg, route intravenous. The class given is ADME, organism-based.
Series [11] in a line: Tmax in Sprague-Dawley rat at 10 mg/kg, iv. It counts as ADME, organism-based. The following applies: in vivo.

Description for K562: Antiproliferative activity against human K562 cells expressing wild type Bcr-Abl after 72 hrs by CCK-8 assay

For orientation: IC50 means the concentration at which inhibition is half-maximal. A higher IC50 goes with weaker potency. Take `Cc1cn(-c2cc(NC(=O)c3ccc(C)c(C#Cc4cnc(N5CCCCC5)nc4)c3)cc(C(F)(F)F)c2)cn1`: the IC50 in “cells” was more than 10000 nM; against Bcr/Abl fusion protein [1], 904 nM; in the series with K562, 640 nM; against Bcr/Abl fusion protein [2] it was more than 1000 nM; in series [3], 683 nM.

As to `Cc1cn(-c2cc(NC(=O)c3ccc(C)c(C#Cc4cnc(NC5CCCCC5)nc4)c3)cc(C(F)(F)F)c2)cn1`, the IC50 in “cells” worked out at 2710 nM; against Bcr/Abl fusion protein [1], 93 nM; in the series on K562 it was 30 nM; against Bcr/Abl fusion protein [2] it was 458 nM; in series [3], 49 nM.

With `Cc1cn(-c2cc(NC(=O)c3ccc(C)c(C#Cc4cnc(NC(C)(C)C)nc4)c3)cc(C(F)(F)F)c2)cn1`, the IC50 in the series “cells” worked out at 135 nM; against Bcr/Abl fusion protein [1] it was 28 nM; in the series with K562, 23 nM; on Bcr/Abl fusion protein [2], 24 nM; in series [3] it was 38 nM.

With `Cc1ccc(NC(=O)c2ccc(CN3CCN(C)CC3)cc2)cc1Nc1nccc(-c2cccnc2)n1` [IMATINIB], the half-inhibitory concentration (IC50) in “cells” is more than 1000 nM; in the series on K562 it was 280 nM.

`CCNc1ncc(C#Cc2cc(C(=O)Nc3cc(-n4cnc(C)c4)cc(C(F)(F)F)c3)ccc2C)cn1`: the half-inhibitory concentration (IC50) was determined as 113 nM in the series “cells”; 30 nM on Bcr/Abl fusion protein [1]; 6 nM with K562; 19 nM against Bcr/Abl fusion protein [2]; 8 nM in series [3].

Consider `Cc1cn(-c2cc(NC(=O)c3ccc(C)c(C#Cc4cnc(N)nc4)c3)cc(C(F)(F)F)c2)cn1`, for which the half-inhibitory concentration (IC50) in the series “cells” worked out at 78 nM; on Bcr/Abl fusion protein [1], 8 nM; with K562, 1 nM; against Bcr/Abl fusion protein [2], 7 nM; in series [3], 2 nM.

By half-life is commonly meant the time in which the quantity being followed falls by half. The term Cmax denotes the highest concentration seen after dosing. The term Tmax denotes the time at which the peak concentration occurs. Turning to `CNc1ncc(C#Cc2cc(C(=O)Nc3cc(-n4cnc(C)c4)cc(C(F)(F)F)c3)ccc2C)cn1`, the AUC in the series with Rattus norvegicus [4] was 35809 µg/L/h; in the series on Rattus norvegicus [6], 48574 µg/L/h. Moreover, the IC50 in the series “cells” was 85 nM; against Bcr/Abl fusion protein [1], 10 nM; in the series with K562 it was 7 nM; against Bcr/Abl fusion protein [2] it was 6 nM; in series [3] it was 3 nM. The figures for the half-life in series [5] and in series [9] were 450 min and 468 min, respectively. Moreover, the results for the highest concentration (Cmax) in series [7] and in [10] were 3090 ng/mL and 11000 ng/mL, respectively. The time to peak (Tmax) in series [8] stood at 2 h; in series [11], 1.98 min.

In the case of `Cc1cn(-c2cc(NC(=O)c3ccc(C)c(C#Cc4cnc(N5CCCC5)nc4)c3)cc(C(F)(F)F)c2)cn1`, the IC50 in “cells” is more than 10000 nM; against Bcr/Abl fusion protein [1] it was more than 1000 nM; with K562, more than 925 nM; against Bcr/Abl fusion protein [2], more than 1000 nM; in series [3], more than 1000 nM.

As to `Cc1cn(-c2cc(NC(=O)c3ccc(C)c(C#Cc4cnc(NCCO)nc4)c3)cc(C(F)(F)F)c2)cn1`, the IC50 in the series “cells” amounted to 1080 nM; on Bcr/Abl fusion protein [1], 18 nM; in the series on K562, 13 nM; on Bcr/Abl fusion protein [2] it was 19 nM; in series [3] it was 17 nM.

Consider `Cc1cn(-c2cc(NC(=O)c3ccc(C)c(C#Cc4cnc(N5CCOCC5)nc4)c3)cc(C(F)(F)F)c2)cn1`, for which the IC50 in “cells” was 8430 nM; against Bcr/Abl fusion protein [1] it was 300 nM; with K562, 355 nM; at Bcr/Abl fusion protein [2], more than 1000 nM; in [3], 292 nM.

Turning to `Cc1cn(-c2cc(NC(=O)c3ccc(C)c(C#Cc4cnc(NC(C)C)nc4)c3)cc(C(F)(F)F)c2)cn1`, the IC50 amounted to 1160 nM in “cells”; 125 nM on Bcr/Abl fusion protein [1]; 27 nM in the series on K562; 187 nM at Bcr/Abl fusion protein [2]; 23 nM in [3].

Regarding `Cc1nc(Nc2ncc(C(=O)Nc3c(C)cccc3Cl)s2)cc(N2CCN(CCO)CC2)n1` [DASATINIB], the IC50 in “cells” was more than 1000 nM; in the series with K562 it was 1 nM.

`Cc1cn(-c2cc(NC(=O)c3ccc(C)c(C#Cc4cnc(Nc5ccccc5)nc4)c3)cc(C(F)(F)F)c2)cn1`: the half-maximal inhibitory concentration (IC50) in the series “cells” was determined as 2400 nM; against Bcr/Abl fusion protein [1] it was 238 nM; in the series on K562, 111 nM; against Bcr/Abl fusion protein [2], 161 nM; in [3], 208 nM.

For the compound `Cc1cn(-c2cc(NC(=O)c3ccc(C)c(Nc4nccc(-c5cccnc5)n4)c3)cc(C(F)(F)F)c2)cn1` [NILOTINIB], inhibition with K562 was half-maximal at 22 nM (IC50).
